This note sets out measurements from patent US20140212382A1, “PURINE MONOPHOSPHATE PRODRUGS FOR TREATMENT OF VIRAL INFECTIONS” (EMORY UNIVERSITY, priority 2011, published 2014).

Common to all, as to type: cell-based
Data set [1] concerns HCV Replicon RNA in Huh 7 Clone B cells. Nature of the data set: HCV replicon assay. Conditions: HCV replicon assay. As for the experimental part: Huh 7 Clone B cells containing HCV Replicon RNA were seeded in a 96-well plate at 5000 cells/well, and the compounds tested at 10 μM in triplicate immediately after seeding. Following five days incubation (37° C., 5% CO2), total cellular RNA was isolated using the versaGene RNA purification kit from Gentra. Replicon RNA and an internal control (TaqMan rRNA control reagents, Applied Biosystems) were amplified in a single step multiplex Real Time RT-PCR Assay. The antiviral effectiveness of the compounds was calculated by subtracting the threshold RT-PCR cycle of the test compound from the threshold RT-PCR cycle of the no-drug control (ΔCt HCV). A ΔCt of 3.3 equals a 1-log reduction (equal to 90% less starting material) in Replicon RNA levels. The cytotoxicity of the compounds was also calculated using the ΔCt rRNA values. (2′-C-Me-C) was used as the control. To determine EC90 and IC50 values^2, ΔCt: values were first converted into a fraction of the starting material,^3 and then were used to calculate the % inhibition. The data on three compounds (Compound 12, Compound 8a, and compound 8b-up) is shown below in Table 3.

The test system of data set [2] is HCV 2b chimera replicon. Nature of the data set: HCV replicon, 2b chimera.
For data set [3], the system named is HCV 1b S282T replicon. In words: HCV resistant replicon 1b S282T. For orientation: A replicon is a self-replicating genome or part of one, used to study replication in cells.
Data set [4] deals with HCV 1a replicon. Nature of the data set: HCV replicon, genotype 1a.
For data set [5], the system named is HCV 5a chimera replicon. In words: HCV replicon, 5a chimera.
Data set [6] concerns HCV 1b C316Y replicon. Nature of the data set: HCV resistant replicon 1b C316Y.
Data set [7] concerns HCV 2a replicon. In words: HCV replicon, genotype 2a.
Data set [8] has as its system HCV 1b M414I replicon. In words: HCV resistant replicon 1b M414I.
In data set [9] the test system is HCV 1b replicon. In words: HCV replicon, genotype 1b.
In data set [10] the test system is MtDNA, HepG2 Hepatoma cells. Nature of the data set: Mitochondrial toxicity in HepG2 cells: mitochondrial DNA content. As to conditions: up to 50 μM; HepG2 Hepatoma cells, 14 day assay; summary also covers nuclear DNA and lactic acid. An excerpt:
A real-time PCR assay to accurately quantify mitochondrial DNA content has been developed (see Stuyver L J, Lostia S, Adams M, Mathew J S, Pai B S, Grier J, Tharnish P M, Choi Y, Chong Y, Choo H, Chu C K, Otto M J, Schinazi R F. Antiviral activities and cellular toxicities of modified 2′,3′-dideoxy-2′,3′-didehydrocytidine analogs. Antimicrob. Agents Chemother. 2002; 46: 3854-60). This assay was used in all studies described in this application that determine the effect of nucleoside analogs on mitochondrial DNA content. In this assay, low-passage-number HepG2 cells were seeded at 5,000 cells/well in collagen-coated 96-well plates. Nucleoside monophosphate analogs were added to the medium to obtain final concentrations of 0 μM, 0.1 μM, 10 μM and 100 μM. On culture day 7, cellular nucleic acids were prepared by using commercially available columns (RNeasy 96 kit; Qiagen). […] The mitochondrial cytochrome c oxidase subunit II (COXII) gene and the β-actin or rRNA gene were amplified from 5 μl of the eluted nucleic acids using a multiplex Q-PCR protocol with suitable primers and probes for both target and reference amplifications. For COXII the following sense, probe and antisense primers are used, respectively: 5′-[…]-3′,5′-tetrachloro-6-carboxyfluorescein-[…]-TAMRA-3′ and 5′-[…]-3′. For exon 3 of the β-actin gene (GenBank accession number E01094) the sense, probe, and antisense primers are 5′-[…]-3′,5′-6-[…]-3′ and 5′-[…]-3′, respectively. The primers and probes for the rRNA gene are commercially available from Applied Biosystems. Since equal amplification efficiencies were obtained for all genes, the comparative CT method was used to investigate potential inhibition of mitochondrial DNA synthesis. The comparative CT method uses arithmetic formulas in which the amount of target (COXII gene) is normalized to the amount of an endogenous reference (the β-actin or rRNA gene) and is relative to a calibrator (a control with no drug at day 7). The arithmetic formula for this approach is given by 2-ΔΔCT, where ΔΔCT is (CT for average target test sample−CT for target control)−(CT for average reference test−CT for reference control) (see Johnson M R, K Wang, J B Smith, M J Heslin, R B Diasio. Quantitation of dihydropyrimidine dehydrogenase expression by real-time reverse transcription polymerase chain reaction. Anal. Biochem. 2000; 278:175-184). A decrease in mitochondrial DNA content in cells grown in the presence of drug would indicate mitochondrial toxicity.
The effect of compounds 8b-up, 12, and 8a on nuclear or mitochondrial DNA, or lactic acid production, in HepG2 Hepatoma cells was analyzed over a 14 day period. The procedure outlined in section (i) above was used for this analysis.

The test system of data set [11] is HCV 4a chimera replicon. Nature of the data set: HCV replicon, 4a chimera.
Data set [12] relates to HCV 3a chimera replicon. Nature of the data set: HCV replicon, 3a chimera.

Regarding `CCOC(=O)CCc1ccccc1OP(=O)(NC(C)C(=O)OCC)OC[C@H]1O[C@@H](n2cnc3c(N)nc(N)nc32)C(C)(O)C1O` (single isomer, unassigned) [Compound 8b-up], in data set [1], the “times more potent than 8b-down” value is “approximately 10”. Besides, the “Fold increase versus 1b WT at the EC90” value in data set [2] is recorded as “++ (++ = 1.1 to 2)”; in data set [3] it was “+ (+ = 0.1 to 1)”; in data set [4], “++ (++ = 1.1 to 2)”; in data set [5], “++ (++ = 1.1 to 2)”; in data set [6], “++ (++ = 1.1 to 2)”; in data set [7], “++ (++ = 1.1 to 2)”. For the same compound, the “Fold increase versus 1b WT at the EC90” value in [8] was “+++ (+++ = 2.1 to 3)”; in [9], “+ (+ = 0.1 to 1)”; in [11], “+++ (+++ = 2.1 to 3)”; in data set [12], “+ (+ = 0.1 to 1)”. In [10], the “effect on nuclear or mitochondrial DNA or lactic acid production” value is “no significant effect”.
